Measurements reported in paper PMC10630452, “The tumor-enriched small molecule gambogic amide suppresses glioma by targeting WDR1-dependent cytoskeleton remodeling” (Signal Transduction and Targeted Therapy, 2023).

Assays:
[1] = system: subcutaneous glioma PDX; experiment: Subcutaneous PDX model of glioma (GBM1); format: in vivo, nude mice
Protocol: (§1) Fig. 2 The BBB permeability and tumor suppressor ability of GA-amide compared with TMZ. GA-amide (a) or TMZ (b) concentration in the tumor area and normal brain tissue following a single injection of GA-amide (10 mg/kg, i.v.) or TMZ (10 mg/kg, i.v.). The data are presented as the means ± SEMs (n = 3). c Western blot analysis of the expression of TrkA in mouse tumor tissues (T) and normal brain tissues (N), n = 4. d Western blot analysis of glycosylated TrkA expression in human normal brain tissues (N) and glioma tissues of different grades. e Time curve of GA-amide and TMZ treatment in a cell viability assay (MTS) in T2-4, GSC2 and T12-1 cells. f–h A PDX mouse model was established, and the mice were treated with vehicle (control, n = 9), 2 mg/kg GA-amide (n = 9), 2 mg/kg GAC (n = 9) or […] TMZ (n = 8) by i.p. injection daily for 10 days. A summary photograph is presented in (f), statistical results in (g) and the body weights of mice in (h); the mean ± SEMs are shown. n.s: P ≥ 0.05, *P < 0.05, **P < 0.01 and ***P < 0.001 compared with the control group by one-way ANOVA at each time point
Male nude mice aged 5–6 weeks were selected for establishment of the in vivo glioma mouse models. For the PDX models, the tumor sample will be soaked in HBSS solution on ice and transferred from the hospital to the laboratory. Patient-related information was shown in Supplementary Table 4). For the subcutaneous PDX models, the isometric fresh GBM tumor (GBM1) specimens were implanted s.c. into the flank of a nude mouse. Then, the mice were treated with GA-amide (2 mg/kg i.p.), gambogic acid (2 mg/kg i.p.), TMZ (65 mg/kg i.p., Selleck) or vehicle after the tumors grew to 100 mm^3. The mouse body weights were measured, and tumor volumes were calculated using the formula L × W^2/2. After treatment, the xenografts were harvested and photographed.

[2] = system: GSC2 and U87MG-SLC cells; experiment: Combination of GA-amide with Trk inhibitors, cell viability; format: cell-based; conditions: 48 hours
Protocol: Supplementary Fig. 5 TrkA was not the functional target for GA-amide to inhibit glioma. a Western blot analyses of the TrkA and p-TrkA expression in GSC2 and U87MG-SLC cells with GA-amide treatment for 4 hours. b Western blot analyses of the p-TrkA expression in GSC2 with GA-amide treatment for different times. c, d The combination effects of GA-amide with GW441756, a TrkA inhibitor, or with K252a, an inhibitor of Trk family in GSC2 (c) and U87MG-SLC (d) (48 hours, n = 3).

[3] = BBB permeability assay in U87MG-SLC intracranial xenograft mice; format: in vivo, mouse; conditions: 10 mg/kg i.v., U87MG-SLC intracranial xenograft mice
Protocol: as §1
Mice bearing U87MG-SLC cell intracranial xenografts were injected with GA-amide (i.v.), and tissues from the brain tumor area and normal brain tissues were collected at different times after injection. […] The diagnostic product ions for GA-amide were detected at m/z 628.3/572.2.

[4] = system: F-actin; experiment: F-actin staining and G-actin/F-actin assay in T2-4 cells; format: cell-based; conditions: 50 nM jas with 0.3 μM GA-amide
Protocol: F-actin isolation was performed according to the instructions of the G-actin/F-actin assay (Cytoskeleton, Inc.). Briefly, cells were lysed in LAS2 buffer (Cytoskeleton, Inc.). The lysates were centrifuged (5 min at 1000 rpm) to pellet undisrupted cells, and then 100 µl of the supernatant was ultracentrifuged at 37 °C (100,000 × g) for 1 h to separate F-actin from soluble G-actin. The F-actin pellet was solubilized by incubation in 100 μL of F-actin depolymerization buffer for 1 h. The soluble F-actin and G-actin fractions were subsequently analyzed by immunoblotting with a mouse monoclonal anti-actin antibody (Cytoskeleton, Inc.).
Representative images of three wells are shown, and the scale bar represents 500 μm. h The apoptosis assay was conducted on T2-4 cells treated with DMSO, GA-amide (0.3 μM), jas (50 nM), and jas (50 nM jas was pretreated for 12 hours) in combination with GA-amide (0.3 μM) for 4 hours. The data were presented as the mean ± SEM (n = 3) and analyzed using one-way ANOVA analysis. Statistical significance is denoted as *P <0.05, **P <0.01, and ***P <0.001.

[5] = 60 mg/kg i.p. daily for 10 days

CC(C)=CCC[C@]1(C)C=Cc2c(O)c3c(c(CC=C(C)C)c2O1)O[C@]12C(=C[C@@H]4C[C@H]1C(C)(C)O[C@@]2(C/C=C(/C)C(=O)O)C4=O)C3=O [GAC, gambogic acid, reference compound]
tumor volume versus control ([1]; 2 mg/kg i.p. daily for 10 days): significantly decreased compared with those in the control group

COC(=O)[C@@]1(O)C[C@H]2O[C@]1(C)n1c3ccccc3c3c4c(c5c6ccccc6n2c5c31)C(=O)NC4 [K252a]
rescue of the inhibitory effect of GA-amide on GSCs [2]: neither the TrkA inhibitor GW441756 nor the Trk family inhibitor K252a[28] restored the inhibitory effect of GA-amide on GSCs

Cn1nnc2c(C(N)=O)ncn2c1=O [TMZ, temozolomide, reference compound]
body weight of mice [1, 5]: significantly decreased
tumor volume versus control [1, 5]: significantly decreased compared with those in the control group
concentration in the tumor area versus the nontumor area [3]: no discernible difference in its distribution between these regions

Cn1cc(/C=C2\C(=O)Nc3cccnc32)c2ccccc21 [GW441756]
rescue of the inhibitory effect of GA-amide on GSCs [2]: neither the TrkA inhibitor GW441756 nor the Trk family inhibitor K252a[28] restored the inhibitory effect of GA-amide on GSCs

C/C1=C\[C@H](C)C[C@H](C)OC(=O)C[C@H](c2ccc(O)cc2)NC(=O)[C@@H](Cc2c(Br)[nH]c3ccccc23)N(C)C(=O)[C@H](C)NC(=O)[C@@H](C)C1 [jasplakinolide, reference compound]
effect of F-actin stabilization on GA-amide induced F-actin depolymerization, invasion inhibition and apoptosis [4]: significantly reversed
